In patent US8530489B2 (Vertex Pharmaceuticals Incorporated, priority 2006, dated 2013):

target: PLK1 (Homo sapiens, UniProt P53350); test: PLK1 Inhibition Assay I (radioactive-phosphate incorporation); assay type: biochemical; conditions: Ki(app); PLK1 Inhibition Assay I or II (table does not say which)
Outline: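 Ki(app) values came from non-linear regression of initial rates after background subtraction, with phosphopeptide measured by phosphocellulose filter binding and scintillation counting. PLK1 at 2 nM was preincubated with compound (typically from 10 μM, 2-fold dilutions) for 10 min, then run 240 min at 25° C with 350 μM [γ-33P]ATP and 450 μM peptide substrate in HEPES pH 7.5 buffer.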

PLK1, sequence (P53350 whole entry): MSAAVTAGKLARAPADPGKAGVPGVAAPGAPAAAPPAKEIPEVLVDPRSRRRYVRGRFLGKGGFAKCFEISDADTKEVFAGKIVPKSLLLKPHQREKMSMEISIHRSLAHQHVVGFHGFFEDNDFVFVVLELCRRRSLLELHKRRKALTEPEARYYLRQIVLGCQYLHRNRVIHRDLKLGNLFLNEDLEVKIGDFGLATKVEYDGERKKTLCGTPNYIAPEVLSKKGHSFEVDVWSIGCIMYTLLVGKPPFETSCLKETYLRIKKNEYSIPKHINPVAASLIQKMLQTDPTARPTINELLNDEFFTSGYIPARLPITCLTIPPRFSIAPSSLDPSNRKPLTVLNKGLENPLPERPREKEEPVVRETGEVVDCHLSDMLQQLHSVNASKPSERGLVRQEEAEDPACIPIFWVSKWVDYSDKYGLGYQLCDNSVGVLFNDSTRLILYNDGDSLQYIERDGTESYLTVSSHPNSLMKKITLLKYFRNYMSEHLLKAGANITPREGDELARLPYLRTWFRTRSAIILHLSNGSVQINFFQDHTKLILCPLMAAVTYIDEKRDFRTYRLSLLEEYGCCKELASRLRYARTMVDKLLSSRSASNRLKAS

Question: How did the Ki turn out when `N#Cc1cnc(NCc2ccc(O)cc2)nc1-c1c[nH]c2ncc(C(F)(F)F)cc12` [Compound I-90, 4-(5-(1,1-Trifluoromethyl)-1H-pyrrolo[2,3-b]pyridin-3-yl)-2-(4-hydroxybenzylamino)pyrimidine-5-carbonitrile] was run?
Answer: The Ki was 0.003 to 0.04 µM.

Question: `CC(=O)NCCNc1ncc(C#N)c(-c2c[nH]c3ncc(C(F)(F)F)cc23)n1` [Compound I-40, N-(2-(5-cyano-4-(5-(trifluoromethyl)-1H-pyrrolo[2,3-b]pyridin-3-yl)pyrimidin-2-ylamino)ethyl)acetamide] was tested. Which Ki did it give?
Answer: Its Ki is over 0.04 µM.

Question: With `C[C@@H](Nc1ncc(C#N)c(-c2c[nH]c3ncc(C(F)(F)F)cc23)n1)c1ccc(N2CCN(Cc3ccccc3)CC2)cc1` [Compound I-130, 2-((R)-1-(4-(4-benzylpiperazin-1-yl)phenyl)ethylamino)-4-(5-(trifluoromethyl)-1H-pyrrolo[2,3-b]pyridin-3-yl)pyrimidine-5-carbonitrile] as the molecule, how does the Ki read?
Answer: Its Ki is under 0.003 µM.

Question: With `N#Cc1cnc(NCc2ccccn2)nc1-c1c[nH]c2ncc(C(F)(F)F)cc12` [Compound I-64, 2-(pyridin-2-ylmethylamino)-4-(5-(trifluoromethyl)-1H-pyrrolo[2,3-b]pyridin-3-yl)pyrimidine-5-carbonitrile] as the molecule, how does the Ki read?
Answer: The Ki was over 0.04 µM.

Question: How did the Ki turn out when `CC(C)(C)OC(=O)N1CCC(CNc2ncc(C#N)c(-c3c[nH]c4ncc(C(F)(F)F)cc34)n2)CC1` [Compound I-28, tert-butyl 4-((5-cyano-4-(5-(trifluoromethyl)-1H-pyrrolo[2,3-b]pyridin-3-yl)pyrimidin-2-ylamino)methyl)piperidine-1-carboxylate] was run?
Answer: Its Ki is over 0.04 µM.

Question: `CCN1CCC(CNc2ncc(C#N)c(-c3c[nH]c4ncc(C(F)(F)F)cc34)n2)CC1` [Compound I-118, 2-((1-ethylpiperidin-4-yl)methylamino)-4-(5-(trifluoromethyl)-1H-pyrrolo[2,3-b]pyridin-3-yl)pyrimidine-5-carbonitrile] was tested. Which Ki did it give?
Answer: Its Ki is over 0.04 µM.

Question: With `N#Cc1cnc(Sc2cccc(Cl)c2)nc1-c1c[nH]c2ncc(C(F)(F)F)cc12` [II-6, 2-(3-chlorophenylthio)-4-(5-(trifluoromethyl)-1H-pyrrolo[2,3-b]pyridin-3-yl)pyrimidine-5-carbonitrile] as the molecule, how does the Ki read?
Answer: The Ki was over 0.04 µM.

Question: For `CC(C)C[C@H](CO)Nc1ncc(C#N)c(-c2c[nH]c3ncc(C(F)(F)F)cc23)n1` [Compound I-44, 2-((R)-1-hydroxy-4-methylpentan-2-ylamino)-4-(5-(trifluoromethyl)-1H-pyrrolo[2,3-b]pyridin-3-yl)pyrimidine-5-carbonitrile], which Ki is on record?
Answer: The Ki was over 0.04 µM.

Question: Which Ki does the source give for `C[C@@H](Nc1ncc(C#N)c(-c2c[nH]c3ncc(C(F)(F)F)cc23)n1)C1CCN(C(=O)[C@@H](N)[C@@H](C)O)CC1` [Compound I-242, 2-((R)-1-(1-((2S,3R)-2-amino-3-hydroxybutanoyl)piperidin-4-yl)ethylamino)-4-(5-(trifluoromethyl)-1H-pyrrolo[2,3-b]pyridin-3-yl)pyrimidine-5-carbonitrile] here?
Answer: The Ki was under 0.003 µM.

Question: For `CSc1ncc(C#N)c(-c2c[nH]c3ncc(C(F)(F)F)cc23)n1` [II-1, 2-(methylthio)-4-(5-(trifluoromethyl)-1H-pyrrolo[2,3-b]pyridin-3-yl)pyrimidine-5-carbonitrile], which Ki is on record?
Answer: The Ki was over 0.04 µM.

Question: For `C[C@@H](Nc1ncc(C#N)c(-c2c[nH]c3ncc(C(F)(F)F)cc23)n1)C1CCN(C(=O)[C@@H]2CCC[C@@H]2N)CC1` [Compound I-246, 2-((R)-1-(1-((1R,2S)-2-aminocyclopentanecarbonyl)piperidin-4-yl)ethylamino)-4-(5-(trifluoromethyl)-1H-pyrrolo[2,3-b]pyridin-3-yl)pyrimidine-5-carbonitrile], which Ki is on record?
Answer: Its Ki is under 0.003 µM.

Question: `C[C@@H](Nc1ncc(C#N)c(-c2c[nH]c3ncc(C(F)(F)F)cc23)n1)C1CCN(C(=O)[C@H](O)C(F)(F)F)CC1` [Compound I-230, 2-((R)-1-(1-((S)-3,3,3-trifluoro-2-hydroxypropanoyl)piperidin-4-yl)ethylamino)-4-(5-(trifluoromethyl)-1H-pyrrolo[2,3-b]pyridin-3-yl)pyrimidine-5-carbonitrile] was tested. Which Ki did it give?
Answer: Its Ki is under 0.003 µM.

Question: Which Ki does the source give for `C[C@@H](Nc1ncc(C#N)c(-c2c[nH]c3ncc(C(F)(F)F)cc23)n1)C1CCN(C(=O)[C@H]2C[C@@H](O)CN2)CC1` [Compound I-262, 2-((R)-1-(1-((2R,4R)-4-hydroxypyrrolidine-2-carbonyl)piperidin-4-yl)ethylamino)-4-(5-(trifluoromethyl)-1H-pyrrolo[2,3-b]pyridin-3-yl)pyrimidine-5-carbonitrile] here?
Answer: The Ki was under 0.003 µM.

Question: Which Ki does the source give for `C[C@@H](Nc1ncc(C#N)c(-c2c[nH]c3ncc(C(F)(F)F)cc23)n1)[C@H]1CC[C@@H](NS(C)(=O)=O)CC1` (single isomer, unassigned) [Compound I-203] here?
Answer: The Ki was under 0.003 µM.

Question: How did the Ki turn out when `N#Cc1cnc(NCc2ccc(Cl)nc2)nc1-c1c[nH]c2ncc(C(F)(F)F)cc12` [Compound I-50, 2-((6-chloropyridin-3-yl)methylamino)-4-(5-(trifluoromethyl)-1H-pyrrolo[2,3-b]pyridin-3-yl)pyrimidine-5-carbonitrile] was run?
Answer: Its Ki is over 0.04 µM.

Question: For `N#Cc1cnc(NCCC2CCCN2)nc1-c1c[nH]c2ncc(C(F)(F)F)cc12` (stereo not shown) [Compound I-85, 2-(2-(pyrrolidin-2-yl)ethylamino)-4-(5-(trifluoromethyl)-1H-pyrrolo[2,3-b]pyridin-3-yl)pyrimidine-5-carbonitrile], which Ki is on record?
Answer: Its Ki is over 0.04 µM.

Question: `C[C@@H](Nc1ncc(C#N)c(-c2c[nH]c3ncc(C(F)(F)F)cc23)n1)c1ccc(C(=O)NC2CC2)cc1` [Compound I-171, 4-((1R)-1-(5-cyano-4-(5-(trifluoromethyl)-1H-pyrrolo[2,3-b]pyridin-3-yl)pyrimidin-2-ylamino)ethyl)-N-cyclopropylbenzamide] was tested. Which Ki did it give?
Answer: The Ki was 0.003 to 0.04 µM.

Question: With `N#Cc1cnc(NCCCN2CCOCC2)nc1-c1c[nH]c2ncc(C(F)(F)F)cc12` [Compound I-70, 2-(3-morpholinopropylamino)-4-(5-(trifluoromethyl)-1H-pyrrolo[2,3-b]pyridin-3-yl)pyrimidine-5-carbonitrile] as the molecule, how does the Ki read?
Answer: The Ki was over 0.04 µM.

Question: Which Ki does the source give for `CC(C)C(C)Nc1ncc(C#N)c(-c2c[nH]c3ncc(C(F)(F)F)cc23)n1` (stereo not shown) [Compound I-24, 2-(3-methylbutan-2-ylamino)-4-(5-(trifluoromethyl)-1H-pyrrolo[2,3-b]pyridin-3-yl)pyrimidine-5-carbonitrile] here?
Answer: Its Ki is 0.003 to 0.04 µM.

Question: Which Ki does the source give for `C[C@@H](Nc1ncc(C#N)c(-c2c[nH]c3ncc(C(F)(F)F)cc23)n1)C1CCN(C(=O)[C@H](N)CO)CC1` [Compound I-240, 2-((R)-1-(1-((R)-2-amino-3-hydroxypropanoyl)piperidin-4-yl)ethylamino)-4-(5-(trifluoromethyl)-1H-pyrrolo[2,3-b]pyridin-3-yl)pyrimidine-5-carbonitrile] here?
Answer: Its Ki is under 0.003 µM.

Question: `CCC(Nc1ncc(C#N)c(-c2c[nH]c3ncc(C(F)(F)F)cc23)n1)c1ccccc1` (stereo not shown) [Compound I-16, 2-(1-phenylpropylamino)-4-(5-(trifluoromethyl)-1H-pyrrolo[2,3-b]pyridin-3-yl)pyrimidine-5-carbonitrile] was tested. Which Ki did it give?
Answer: The Ki was 0.003 to 0.04 µM.

Question: Which Ki does the source give for `C[C@@H](Nc1ncc(C#N)c(-c2c[nH]c3ncc(C(F)(F)F)cc23)n1)c1ccc(S(N)(=O)=O)cc1` [Compound I-196, 4-((1R)-1-(5-cyano-4-(5-(trifluoromethyl)-1H-pyrrolo[2,3-b]pyridin-3-yl)pyrimidin-2-ylamino)ethyl)benzenesulfonamide] here?
Answer: The Ki was under 0.003 µM.

Question: Which Ki does the source give for `C[C@@H](Nc1ncc(C#N)c(-c2c[nH]c3ncc(C(F)(F)F)cc23)n1)C1CCNCC1` [Compound I-204, 2-((R)-1-(piperidin-4-yl)ethylamino)-4-(5-(trifluoromethyl)-1H-pyrrolo[2,3-b]pyridin-3-yl)pyrimidine-5-carbonitrile] here?
Answer: Its Ki is 0.003 to 0.04 µM.

Question: `CC(Nc1ncc(C#N)c(-c2c[nH]c3ncc(C(F)(F)F)cc23)n1)C1CCN(C(=O)CN(C)C)CC1` (stereo not shown) [Compound I-193, 2-(1-(1-(2-(dimethylamino)acetyl)piperidin-4-yl)ethylamino)-4-(5-(trifluoromethyl)-1H-pyrrolo[2,3-b]pyridin-3-yl)pyrimidine-5-carbonitrile] was tested. Which Ki did it give?
Answer: Its Ki is under 0.003 µM.

Question: With `CC(C)Nc1ncc(C#N)c(-c2c[nH]c3ncc(Nc4ccccc4)cc23)n1` [EG6, 2-(isopropylamino)-4-(5-(phenylamino)-1H-pyrrolo[2,3-b]pyridin-3-yl)pyrimidine-5-carbonitrile] as the molecule, how does the Ki read?
Answer: Its Ki is 0.003 to 0.04 µM.

Question: How did the Ki turn out when `CC(=O)Nc1ccc(C(C)Nc2ncc(C#N)c(-c3c[nH]c4ncc(C(F)(F)F)cc34)n2)cc1` (stereo not shown) [Compound I-121, N-(4-(1-(5-cyano-4-(5-(trifluoromethyl)-1H-pyrrolo[2,3-b]pyridin-3-yl)pyrimidin-2-ylamino)ethyl)phenyl)acetamide] was run?
Answer: The Ki was under 0.003 µM.

Question: Which Ki does the source give for `N#Cc1cnc(NCCN2CCOCC2)nc1-c1c[nH]c2ncc(C(F)(F)F)cc12` [Compound I-69, 2-(2-morpholinoethylamino)-4-(5-(trifluoromethyl)-1H-pyrrolo[2,3-b]pyridin-3-yl)pyrimidine-5-carbonitrile] here?
Answer: The Ki was over 0.04 µM.

Question: `CC(Nc1ncc(C#N)c(-c2c[nH]c3ncc(C(F)(F)F)cc23)n1)c1ccc(N2CC(O)(C3CC3)C2)nc1` (stereo not shown) [Compound I-194, 2-(1-(6-(3-cyclopropyl-3-hydroxyazetidin-1-yl)pyridin-3-yl)ethylamino)-4-(5-(trifluoromethyl)-1H-pyrrolo[2,3-b]pyridin-3-yl)pyrimidine-5-carbonitrile] was tested. Which Ki did it give?
Answer: Its Ki is 0.003 to 0.04 µM.

Question: For `CNc1ncc(C#N)c(-c2c[nH]c3ncc(C(F)(F)F)cc23)n1` [Compound I-2, 2-(methylamino)-4-(5-(trifluoromethyl)-1H-pyrrolo[2,3-b]pyridin-3-yl)pyrimidine-5-carbonitrile], which Ki is on record?
Answer: Its Ki is over 0.04 µM.

Question: For `C[C@@H](Nc1ncc(C#N)c(-c2c[nH]c3ncc(C(F)(F)F)cc23)n1)c1ccc(Br)cc1` [Compound I-33, 2-((R)-1-(4-bromophenyl)ethylamino)-4-(5-(trifluoromethyl)-1H-pyrrolo[2,3-b]pyridin-3-yl)pyrimidine-5-carbonitrile], which Ki is on record?
Answer: Its Ki is over 0.04 µM.

Question: `CC(Nc1ncc(C#N)c(-c2c[nH]c3ncc(C(F)(F)F)cc23)n1)c1ccc(N2CCOCC2)cc1` (stereo not shown) [Compound I-125, 2-(1-(4-morpholinophenyl)ethylamino)-4-(5-(trifluoromethyl)-1H-pyrrolo[2,3-b]pyridin-3-yl)pyrimidine-5-carbonitrile] was tested. Which Ki did it give?
Answer: Its Ki is under 0.003 µM.
